According to publication PMC8041284, “Tunable Methacrylamides for Covalent Ligand Directed Release Chemistry” (Journal of the American Chemical Society, 2021):

Molecular target: BTK (Homo sapiens, UniProt Q06187)
Experiment: biochemical
Details: read-out: BTK inhibition (%)

Chain of BTK (Q06187 402-655 limits assumed): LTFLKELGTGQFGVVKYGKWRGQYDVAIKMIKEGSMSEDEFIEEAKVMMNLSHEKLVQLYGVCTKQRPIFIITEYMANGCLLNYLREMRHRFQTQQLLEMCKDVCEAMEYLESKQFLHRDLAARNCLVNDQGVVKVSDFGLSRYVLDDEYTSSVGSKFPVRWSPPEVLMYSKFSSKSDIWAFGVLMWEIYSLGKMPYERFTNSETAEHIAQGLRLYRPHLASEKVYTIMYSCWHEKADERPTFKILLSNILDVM

SMILES	inhibition at 10 µM [%]
CCN1C[C@]2(COC)CC[C@H](OC)[C@]34C1[C@H](C[C@H]23)[C@@]1(O)C[C@H](OC)[C@H]2C[C@@H]4[C@@H]1[C@H]2O [PCM-0216478]	10.8

Same assay, conditions: read-out: BTK inhibition (%), 0.75 uM BTK, […] probe 3l, 15 min preincubation

SMILES	inhibition at 10 µM [%]
Clc1ccc2c(N3CCN(CCCN4CCN(c5ccnc6cc(Cl)ccc56)CC4)CC3)ccnc2c1 [PCM-0216142]	-5.1
Cc1nc2c(O)cccc2c(=O)[nH]1 [PCM-0215466]	-10.8
CC(=O)O[C@@H]1C[C@H](O)[C@@]23CO[C@@H](O)[C@]1(C)[C@@H]2C[C@@H](O)[C@]1(C)[C@@H]3C(=O)[C@H](OC(C)=O)[C@@]2(C)[C@H](c3ccoc3)C[C@H]3O[C@]321 [PCM-0216537]	-15.4
C=C1C[C@@H]2[C@H](CC[C@]3(C)C(=O)CC[C@@H]23)[C@@]2(C)C=CC(=O)C=C12 [PCM-0214605]	-6.9
COc1cc2c(cc1OC)C1Cc3ccc(OC)c(OC)c3CN1CC2 (stereo not shown) [PCM-0088127]	-14
C[C@]12C[C@@H](O)[C@@H]3C[C@@]1(O[C@@H]1O[C@H](CO)[C@@H](O)[C@H](O)[C@H]1O)[C@]3(COC(=O)c1ccccc1)C(=O)O2 [PCM-0216349]	-12.4
O=C(NCCCNc1nc(Nc2cccc(NC(=O)N3CCCC3)c2)ncc1I)c1cccs1 [PCM-0095061]	60
Cc1cc(C(N)=O)ccc1-n1c(CCC(=O)O)ccc1-c1ccc(-n2ccnc2)cc1 [PCM-0215346]	6.9
COc1cccc(-c2cc(NCc3ccc4c(c3)OCO4)nc(N)n2)c1 [PCM-0215610]	-7.7
O=P(O)(O)OC1C(OP(=O)(O)O)C(OP(=O)(O)O)C(OP(=O)(O)O)C(OP(=O)(O)O)C1OP(=O)(O)O (stereo not shown) [PCM-0215940]	21.3
O=C(NC[C@H](O)CN1CCc2ccccc2C1)c1cc(NC2COC2)ncn1 [PCM-0215447]	1.5
CCCCC(=O)N(Cc1ccc(-c2ccccc2-c2nn[nH]n2)cc1)[C@H](C(=O)O)C(C)C [PCM-0090417]	-27.2
O=C(O)[C@H](O)Cc1ccc(O)c(O)c1 [PCM-0215761]	7.7
COc1cc2c(c(OC)c1OC)-c1c(cc3c(c1OC)OCO3)C[C@H](C)[C@](C)(O)[C@H]2OC(=O)c1ccccc1 [PCM-0216060]	3.9
COc1ccc(C[C@@H]2c3cc(Oc4cc(C[C@@H]5c6cc(OC)c(OC)cc6CCN5C)ccc4O)c(OC)cc3CCN2C)cc1 [PCM-0215948]	4.6
COc1ccc(Cl)cc1NC(=O)Nc1cc(C)nc2ccccc12 [PCM-0095597]	9
Clc1ccc2nsnc2c1NC1=NCCN1 [PCM-0065635]	14.8
C[C@@H](c1ccc2nccn2c1)n1nnc2ncc(-c3cnn(C)c3)nc21 [PCM-0215934]	-9.3
O=C(O)c1ccc(Br)c(O)c1 [PCM-0216168]	-23.9
CCN(CC)CCCCNc1ncc2cc(-c3cc(OC)cc(OC)c3)c(NC(=O)NC(C)(C)C)nc2n1 [PCM-0095037]	-9
CS(=O)(=O)c1ccc(C(=O)Nc2ccc(Cl)c(-c3ccccn3)c2)c(Cl)c1 [PCM-0095048]	6.2
Cc1ccc(-n2nc(C(C)(C)C)cc2NC(=O)Nc2ccc(OCCN3CCOCC3)c3ccccc23)cc1 [PCM-0095136]	9.7
CCCNC(C)C(=O)Nc1c(C)csc1C(=O)OC (stereo not shown) [PCM-0086324]	-13.2
c1coc(CNc2ncnc3nc[nH]c23)c1 [PCM-0000462]	10.9

SMILES	inhibition at 10 µM [%]
NS(=O)(=O)Cc1noc2ccccc12 [PCM-0214625]	-14.8
COc1ccc(C[C@H](N)C(=O)N[C@H]2[C@@H](O)[C@H](n3cnc4c(N(C)C)ncnc43)O[C@@H]2CO)cc1 [PCM-0215332]	-3.1
NC(=S)c1ccncc1 [PCM-0214940]	7.8
COc1cc(/C=C/C(=O)O[C@H]2[C@H](O)[C@@H](CO)O[C@@]2(CO)O[C@H]2O[C@H](CO)[C@@H](O)[C@H](O)[C@H]2O)ccc1O [PCM-0216331]	-3.1
CC(=O)OCOC(=O)CN(CC(=O)OCOC(C)=O)c1ccccc1OCCOc1ccccc1N(CC(=O)OCOC(C)=O)CC(=O)OCOC(C)=O [PCM-0215314]	-27.8
CC1CCN(CC[C@H]2CCCN2S(=O)(=O)c2cccc(O)c2)CC1 [PCM-0065410]	7.8
C[C@@H]1[C@H](O)[C@@H](C)/C=C/C=C/C=C/C=C/C=C/C=C/C=C/[C@H](O[C@@H]2O[C@H](C)[C@@H](O)[C@H](N)[C@@H]2O)C[C@@H]2O[C@](O)(C[C@@H](O)C[C@@H](O)[C@H](O)CC[C@@H](O)C[C@@H](O)CC(=O)O[C@H]1C)C[C@H](O)[C@H]2C(=O)O [PCM-0214634]	-3.1
C[C@@H]1O[C@@H](Oc2c(-c3cc(O)c(O)c(O)c3)oc3cc(O)cc(O)c3c2=O)[C@H](O)[C@H](O)[C@H]1O [PCM-0089676]	-2.3
CN(Cc1ccc(C(C)(C)C)cc1)Cc1cccc2ccccc12 [PCM-0086068]	62.3
O=P(O)(O)OC(CO)CO [PCM-0215880]	11.9
O=c1cc(-c2ccccc2)oc2cc(O)c(O)c(O)c12 [PCM-0214670]	79.4
COc1ccc(-c2cc(=O)c3c(OC)c(OC)c(OC)c(OC)c3o2)cc1OC [PCM-0091108]	2.3
C=C1CC[C@H]2C(=C)CC[C@H]3C(=C)C(=O)O[C@@H]3[C@@H]12 [PCM-0214878]	32.7
CC1(C)OC(=O)C=C[C@]2(C)[C@H]3CC[C@@]4(C)[C@H](c5ccoc5)OC(=O)[C@H]5O[C@]54[C@]3(C)C(=O)C[C@@H]12 [PCM-0214973]	11.7
O=C(O)c1ccc2c(c1)nc(Nc1cccc(Cl)c1)c1ccncc12 [PCM-0095287]	13.1
N[C@@H](CC(=O)N1CCn2c(nnc2C(F)(F)F)C1)Cc1cc(F)c(F)cc1F [PCM-0214812]	-1.6
CCC(=O)O[C@]1(C(=O)SCF)[C@H](C)C[C@H]2[C@@H]3C[C@H](F)C4=CC(=O)C=C[C@]4(C)[C@@]3(F)[C@@H](O)C[C@@]21C [PCM-0214707]	15.2
COc1cc(C2Oc3ccc([C@H]4Oc5cc(O)cc(O)c5C(=O)[C@@H]4O)cc3OC2CO)ccc1O (stereo partly shown) [PCM-0216498]	21.6
COc1cc(C2Oc3cc(C4Oc5cc(O)cc(O)c5C(=O)C4O)ccc3OC2CO)ccc1O (stereo not shown) [PCM-0094811]	66.1
CCCS(=O)(=O)Nc1ccc(F)c(C(=O)c2c[nH]c3ncc(-c4ccc(Cl)cc4)cc23)c1F [PCM-0095039]	24.8
Nc1ccc(S(=O)(=O)Nc2nccs2)cc1 [PCM-0085785]	14.8
CCCCCCC[C@H](O)CC(=O)CCc1ccc(O)c(OC)c1 [PCM-0216329]	-41.7
CN[C@H](CC(=O)O)C(=O)O [PCM-0065539]	-10
O=C(O)C1=C(CSc2nnnn2CS(=O)(=O)O)CS[C@@H]2[C@H](NC(=O)[C@H](O)c3ccccc3)C(=O)N12 [PCM-0214888]	3.9

SMILES	inhibition at 10 µM [%]
C=C1C[C@@]23CC[C@H]4[C@@](C)(CCC[C@@]4(C)C(=O)O[C@@H]4O[C@H](CO)[C@@H](O)[C@H](O)[C@H]4O)[C@@H]2CC[C@]1(O[C@@H]1O[C@H](CO)[C@@H](O)[C@H](O)[C@H]1O)C3 [PCM-0216413]	4.6
Cc1sc2c(c1C)C(c1ccc(Cl)cc1)=N[C@@H](CC(N)=O)c1nnc(C)n1-2 [PCM-0215329]	-14.7
CCOC(=O)C1=C[C@]2(CC)CCCN3CCc4c(n1c1ccccc41)[C@@H]32 [PCM-0064941]	-14.5
N=C1CCCN1Cc1[nH]c(=O)[nH]c(=O)c1Cl [PCM-0214897]	-10.1
C=CC[C@]1(O)CC[C@H]2[C@@H]3CCC4=CC(=O)CCC4=C3C=C[C@@]21C [PCM-0095614]	-4.7
Cc1cc(-c2nc(-c3ccc(OC(F)(F)F)cc3)no2)nn1Cc1ccnc(N2CCN(C3CC3)CC2)c1 [PCM-0215339]	-1.5
C1N2CN3CN1CN(C2)C3 [PCM-0086204]	-8.6
COc1cccc(Nc2c(C(N)=O)cnc3c(C)cc(S(=O)(=O)c4cccc(C(=O)N(C)C)c4)cc23)c1 [PCM-0095466]	0
CCC(=O)N1CCN(c2ccc(-n3c(=O)ccc4cnc5ccc(-c6cnc7ccccc7c6)cc5c43)cc2C(F)(F)F)CC1 [PCM-0095455]	-25.5
NC(CO)C(=O)NNCc1ccc(O)c(O)c1O (stereo not shown) [PCM-0064697]	-14
C[C@@H]1CC[C@H]2C(C)(C)C3CC12CC[C@@]3(C)O (stereo partly shown) [PCM-0215144]	8.6
O=S(=O)(c1ccc2c(c1)C(=NO)c1cc(S(=O)(=O)N3CCCCC3)ccc1-2)N1CCCCC1 [PCM-0215952]	-18.5
COc1cc2c(c(O)c1OC)-c1c(cc(OC)c(OC)c1OC)C[C@@H](C)[C@@H](C)C2 [PCM-0216483]	23.9
CCC(C)n1ncn(-c2ccc(N3CCN(c4ccc(OC[C@H]5CO[C@](Cn6cncn6)(c6ccc(Cl)cc6Cl)O5)cc4)CC3)cc2)c1=O (stereo partly shown) [PCM-0090573]	-13.6
Nc1nc(NCCc2ccc(O)cc2)nc2nc(-c3ccco3)nn12 [PCM-0215654]	-4.6
CC(C)CN(CC(=O)N1CCN(CC(OCc2ccc3ccccc3c2)c2ccc(Cl)cc2Cl)CC1)CC(C)C (stereo not shown) [PCM-0215889]	93.4
Fc1ccc(C(c2ccc(F)cc2)N2CCN(C/C=C/c3ccccc3)CC2)cc1 [PCM-0065210]	87.2
O=C(/C=C/c1ccc(O)c(O)c1)c1ccc(O)cc1O [PCM-0095622]	55.2
Nc1ccccc1NC(=O)c1ccc(CNc2nccc(-c3cccnc3)n2)cc1 [PCM-0094926]	2.8
CS(=O)(=O)c1ccc(-c2cnc(N)c(C(=O)Nc3ccccc3)n2)cc1 [PCM-0095599]	10.3
O=C(Cc1ccccc1)Nc1nnc(CCSCCc2nnc(NC(=O)Cc3ccccc3)s2)s1 [PCM-0215483]	5.4
CC(=O)OCC(=O)[C@@]1(O)CC[C@H]2[C@@H]3CCC4=CC(=O)C=C[C@]4(C)[C@H]3[C@@H](O)C[C@@]21C [PCM-0214701]	2.1
CNC(=O)c1cc(Oc2ccc3nc(N[C@@H]4CCCC[C@H]4O)sc3c2)ccn1 [PCM-0215436]	-9
C[N+](C)(C)C[C@H](O)CC(=O)[O-] [PCM-0090364]	10.1
